Laboratory results reported in publication PMC12888920, “MMP-9 regulates disulphide isomerase activity of TGM2 to enhance fusion glycoprotein-mediated syncytium formation of respiratory syncytial virus” (Protein & Cell, 2025).

Tested on: RSV F/G/SH pseudovirus
Assay: RSV F/G/SH pseudovirus entry assay (luciferase)
Assay type: cell-based, Respiratory syncytial virus
Details: 5 µmol/L, HEp-2, 48 hpi
Protocol: Figure 2. MMP-9 regulates late-stage RSV infection. (A) Time-of-addition assay design (left). HEp-2 cells were treated with metalloproteinase inhibitors under three regimens: “Full-time” (2 h pretreatment + continuous exposure), “Entry” (viral attachment phase only), or “Post-entry” (≥ 2 hpi). Cells infected with RSV A2 (MOI = 1) were analyzed for cytopathic effect inhibition at 72 hpi versus DMSO controls. mean ± SD, n = 3. (B) No inhibition of RSV F/G/SH pseudovirus entry by doxycycline hyclate or JNJ0966 (5 µmol/L). mean ± SD, n = 3. (C) Temporal sensitivity analysis (left). Viral RNA levels (22 hpi) in HEp-2 cells treated with 5 µmol/L inhibitors at defined intervals: pre-infection (−2–0 h), entry (0–2 h), or post-entry (2–16 h) phases (right). mean ± SD, n = 3. (D) Multicycle replication kinetics. Intracellular RSV RNA (fusion gene copies) in HEp-2 cells treated with 5 µmol/L inhibitors at indicated time points (4–144 hpi). mean ± SD, n = 3. (E) Viral assembly/release inhibition assay. Supernatant viral titers at 22 hpi after post-entry treatment (10/16 hpi) (right). mean ± SD, n = 3. (F) Dose-dependent suppression of RSV progeny (MOI = 0.2/1) by inhibitors (72 hpi), quantified by FFA. mean ± SD, n = 3. […] The results are representatively shown with three random experiments. The error bars indicate the mean ± SD of three technical replicates (n = 3). […]

Compound	inhibition of RSV F/G/SH pseudovirus entry
COc1ccccc1Nc1nc(-c2sc(NC(C)=O)nc2C)cs1 [JNJ0966]	No inhibition
Doxycycline hyclate	No inhibition
